{"source": "patent US4088778A", "about": "“Method for the treatment of hypertension” (priority 1975, dated 1978)", "key": {"Solubility": {"assay": "Solubility", "format": "physicochemical"}, "[1]": {"assay": "Clinical Experiment II: kidney function test", "format": "in vivo, human patients", "details": "in mg/dL (unit assumed)", "procedure": "75 patients of hypertension or arteriosclerosis having subjective symptoms were tested. Some of them suffered from complications such as ischemia heart disease and cerebral thrombosis. They are detailed in Table 11.\nTwo capsules were administered at one time, and the administration was conducted 3 times per day after eating. The duration of the continuous administration was 4 weeks. Combined use of drugs having the same functions as those of TN (vitamin E drugs, nicotinic acid, its derivatives and peripheral vasolidators) and minor tranquilizers was prohibited.\nThe kidney function test results are shown in Table 17, from which it will readily be understood that the variation of BUN values was within the normal region."}, "[2]": {"assay": "Hypotensive effect on rats of spontaneous hypertension, old SHR", "format": "in vivo, rats (9-month-old male SHR)", "details": "100 mg/kg TN orally once a day", "procedure": "(B) Hypotensive Effect on Rats of Spontaneous Hypertension:\nExperiments were conducted by using two classes of rats of spontaneous hypertension (hereinafter referred to as \"SHR\"; provided by Nippon Rat K.K.) differing in the age. In the first experiment, 9-month-old chronic […] SHR (hereinafter referred to as \"old SHR\"), and in the second experiment, 7-week-old SHR in which hypertension was advancing (hereinafter referred to as \"young SHR\") was used.\n(1) Experiment on Old SHR:\n40 of 9-month-old male SHR (having a body weight of 360 to 450 g) were divided into 10 groups, each consisting of 4 rats, and each group was placed in a cage. One of the rats in each cage was used as the non-administered control animal, and 20 mg/Kg of TN, 100 mg/Kg of TN and 88 mg/Kg of TA (equimolar to 100 mg/Kg of TN) were administered to the remaining 3 rats, respectively. Each hypotensive agent was orally administered once a day over a period of 4 weeks in the form of a suspension in gum arabic. Gum arabic solution was administered to the Control (non-administered) group. Simultaneously with initiation of the administration, drinking water was exchanged from service water to a 1% aqueous solution of sodium chloride."}}}
{"smiles": "Cc1c(C)c2c(c(C)c1OC(=O)c1cccnc1)CCC(C)(CCCC(C)CCCC(C)CCCC(C)C)O2", "note": "(racemic) [TN, dl-α-tocopheryl nicotinate]", "values": [{"measurement": "solubility in organic solvents", "setting": "Solubility", "value": "easily soluble in acetone, benzene, chloroform, ether and ethanol"}, {"measurement": "solubility in water", "setting": "Solubility", "value": "hardly soluble in water"}, {"measurement": "BUN, Average Value", "setting": "[1]; after administration, N 27, S.D. ±8.48", "value": 14.99}, {"measurement": "BUN, Average Value", "setting": "[1]; before administration, N 31, S.D. ±6.23", "value": 14.74}, {"measurement": "difference of the blood pressure between control and administered group", "setting": "[2]; 3rd week", "value": "about 30 mm Hg"}, {"measurement": "lowering of blood pressure on the average", "setting": "[2]; after 1 week", "value": 15, "unit": "mm Hg"}]}
